Like-named read-outs stand apart in the source and are kept apart here.
Assays:
[1] = tested on: CAL-120, human breast adenocarcinoma cells; experiment: Proliferation assay CAL-120 (crystal violet, 4 days); type: cell-based; conditions: CAL-120 cells, median, read-out: Prolif-CAL-120, IC50-[mol/l] (median)
How it was run: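 IC50 from a 4-parameter fit of crystal violet absorbance (595 nm), scaled between the day-of-dosing plate (0%) and vehicle cells (100%). MDA-MB-231 or CAL-120 cells were treated for 4 days with 0.01–10 micromol/L compound in 0.1% DMSO after 24 h attachment.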

CDK9/CycT1 = target: T1, CDK9/CycT1 (Homo sapiens, UniProt P50750); experiment: CDK9/CycT1 high ATP kinase assay (TR-FRET, 2 mM ATP); type: biochemical; conditions: 2 mM ATP (high ATP); median; read-out: CDK9/CyclinT1, 2 mM ATP (high ATP), IC50 (median)
T1 construct: Recombinant full-length His-tagged human CDK9 and CycT1; purchased Life Technologies PV4131; host or cells: insect cells
How it was run: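 Full-length His-tagged human CDK9/CycT1 (insect cell, ~0.5 μg/mL) preincubated 15 min at 22 °C with compound in Tris pH 8.0, MgCl2, DTT buffer before reaction with biotinylated peptide substrate at high ATP (2 mM).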

[2] = tested on: BRCA1 mRNA expression in MDA-MB-231 cells; experiment: qRT-PCR assay: BRCA1 mRNA expression in MDA-MB-231; type: cell-based, human; conditions: Homo sapiens, MDA-MB-231, Inhibition of BRCA1 mRNA expression in MDA-MB-231 cells; median; read-out: RTqPCR-MDA-MB-231, IC50, BRCA1 (median)
How it was run: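 BRCA1 transcript by RT-qPCR relative to GAPDH, from 600 ng RNA converted to cDNA. MDA-MB-231 cells plated at 200,000/well received test compound continuously for 24 h, starting 24 h post-seeding.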

T1 sequence (P50750 whole entry): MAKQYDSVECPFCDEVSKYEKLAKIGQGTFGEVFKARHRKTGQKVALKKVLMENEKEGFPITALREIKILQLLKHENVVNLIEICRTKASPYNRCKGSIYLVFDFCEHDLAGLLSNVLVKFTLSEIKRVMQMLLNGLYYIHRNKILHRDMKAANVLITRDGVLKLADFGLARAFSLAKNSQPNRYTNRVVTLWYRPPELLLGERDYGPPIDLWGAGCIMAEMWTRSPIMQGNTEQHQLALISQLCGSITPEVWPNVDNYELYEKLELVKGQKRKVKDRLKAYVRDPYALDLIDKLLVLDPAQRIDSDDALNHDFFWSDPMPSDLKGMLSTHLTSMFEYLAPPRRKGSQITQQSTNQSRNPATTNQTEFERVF
T1 sequence (O60563 whole entry partner): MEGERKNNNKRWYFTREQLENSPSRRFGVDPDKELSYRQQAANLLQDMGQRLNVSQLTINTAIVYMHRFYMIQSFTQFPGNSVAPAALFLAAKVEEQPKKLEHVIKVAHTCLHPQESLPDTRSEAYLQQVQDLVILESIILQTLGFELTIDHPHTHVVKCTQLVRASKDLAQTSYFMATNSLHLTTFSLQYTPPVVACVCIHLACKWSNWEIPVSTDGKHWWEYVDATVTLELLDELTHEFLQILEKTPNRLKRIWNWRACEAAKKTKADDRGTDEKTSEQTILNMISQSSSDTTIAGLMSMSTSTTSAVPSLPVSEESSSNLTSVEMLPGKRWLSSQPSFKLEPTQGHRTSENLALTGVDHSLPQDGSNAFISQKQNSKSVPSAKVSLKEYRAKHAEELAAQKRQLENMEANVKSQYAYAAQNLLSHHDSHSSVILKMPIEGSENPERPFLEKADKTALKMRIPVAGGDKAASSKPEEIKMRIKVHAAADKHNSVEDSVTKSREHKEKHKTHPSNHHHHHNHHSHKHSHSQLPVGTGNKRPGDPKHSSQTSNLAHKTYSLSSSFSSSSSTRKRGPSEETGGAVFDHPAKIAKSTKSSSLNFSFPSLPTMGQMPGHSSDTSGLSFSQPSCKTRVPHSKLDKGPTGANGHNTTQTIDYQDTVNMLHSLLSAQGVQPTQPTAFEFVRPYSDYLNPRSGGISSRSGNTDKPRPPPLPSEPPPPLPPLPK

## Clc1cc2nc(CNc3nc(N4CCOCC4)nc4c(C5CC5)cnn34)[nH]c2cc1Cl [Example 301, 8-cyclopropyl-N-[(5,6-dichloro-1H-benzimidazol-2-yl)methyl]-2-(morpholin-4-yl)pyrazolo[1,5-a][1,3,5]triazin-4-amine]
[1]; Homo sapiens, CAL-120, 96 h
  IC50: 5.74 nM
CDK9/CycT1
  IC50: > 20000 nM
[2]
  IC50: 6.73 nM

## Brc1cnn2c(NCc3nc4ccccc4[nH]3)nc(N3CCC4(CCN4)CC3)nc12 [Example 291, N-[(1H-benzimidazol-2-yl)methyl]-8-bromo-2-(1,7-diazaspiro[3.5]nonan-7-yl)pyrazolo[1,5-a][1,3,5]triazin-4-amine]
[1]; Homo sapiens, CAL-120, 96 h
  IC50: 18.6 nM
CDK9/CycT1
  IC50: > 20000 nM
[2]
  IC50: 15.3 nM

## CN(CC(C)(C)O)c1nc(NCc2nc3cc(F)c(Cl)cc3[nH]2)n2ncc(C3CC3)c2n1 [Example 317, 1-[(4-{[(6-chloro-5-fluoro-1H-benzimidazol-2-yl)methyl]amino}-8-cyclopropylpyrazolo[1,5-a][1,3,5]triazin-2-yl)(methyl)amino]-2-methylpropan-2-ol]
[1]; Homo sapiens, CAL-120, 96 h
  IC50: 3.66 nM
CDK9/CycT1
  IC50: > 20000 nM
[2]
  IC50: 6.9 nM

## FC(F)(F)c1cnn2c(NCc3nc4cc(Cl)ccc4[nH]3)nc(N3CCOCC3)nc12 [Example 275, N-[(5-chloro-1H-benzimidazol-2-yl)methyl]-2-(morpholin-4-yl)-8-(trifluoromethyl)pyrazolo[1,5-a][1,3,5]triazin-4-amine]
[1]; Homo sapiens, CAL-120, 96 h
  IC50: 3.88 nM
CDK9/CycT1
  IC50: > 20000 nM
[2]
  IC50: 2.01 nM

## Fc1cc2nc(CNc3nc(N4CCOCC4)nc4c(C5CC5)cnn34)[nH]c2cc1F [Example 318, 8-cyclopropyl-N-[(5,6-difluoro-1H-benzimidazol-2-yl)methyl]-2-(morpholin-4-yl)pyrazolo[1,5-a][1,3,5]triazin-4-amine]
[1]; Homo sapiens, CAL-120, 96 h
  IC50: 2.8 nM
CDK9/CycT1
  IC50: > 20000 nM
[2]
  IC50: 0.97 nM

## CN1CCN(c2nc(NCc3nc4c(F)cccc4[nH]3)n3ncc(C(F)(F)F)c3n2)CC1 [Example 293, N-[(4-fluoro-1H-benzimidazol-2-yl)methyl]-2-(4-methylpiperazin-1-yl)-8-(trifluoromethyl)pyrazolo[1,5-a][1,3,5]triazin-4-amine]
[1]; Homo sapiens, CAL-120, 96 h
  IC50: 8.88 nM
CDK9/CycT1
  IC50: > 20000 nM
[2]
  IC50: 5.68 nM

## Brc1cnn2c(NCc3nc4ccccc4[nH]3)nc(NCC3CC3)nc12 [Example 284, N^4-[(1H-benzimidazol-2-yl)methyl]-8-bromo-N^2-(cyclopropylmethyl)pyrazolo[1,5-a][1,3,5]triazine-2,4-diamine]
[1]; Homo sapiens, CAL-120, 96 h
  IC50: 73.8 nM
CDK9/CycT1
  IC50: > 20000 nM
[2]
  IC50: 24.2 nM

## Fc1ccc2[nH]c(CNc3nc(N4CCOCC4)nc4c(C5CC5(F)F)cnn34)nc2c1 (single isomer, unassigned) [Example 314, 8-[(1R or S)-2,2-difluorocyclopropyl]-N-[(5-fluoro-1H-benzimidazol-2-yl)methyl]-2-(morpholin-4-yl)pyrazolo[1,5-a][1,3,5]triazin-4-amine]
[1]; Homo sapiens, CAL-120, 96 h
  IC50: 13 nM
CDK9/CycT1
  IC50: > 20000 nM
[2]
  IC50: 35.7 nM

## Fc1ccc2[nH]c(CNc3nc(N4C[C@H]5CC[C@@H](C4)N5)nc4c(C5CC5)cnn34)nc2c1F [Example 294, 8-cyclopropyl-2-[(1R,5S)-3,8-diazabicyclo[3.2.1]octan-3-yl]-N-[(4,5-difluoro-1H-benzimidazol-2-yl)methyl]pyrazolo[1,5-a][1,3,5]triazin-4-amine]
[1]; Homo sapiens, CAL-120, 96 h
  IC50: 1.42 nM
CDK9/CycT1
  IC50: 15300 nM
[2]
  IC50: 1.16 nM

## c1ccc2[nH]c(CNc3nc(N4CCOCC4)nc4c(C5CCCC5)cnn34)nc2c1 [Example 244, N-[(1H-benzimidazol-2-yl)methyl]-8-cyclopentyl-2-(morpholin-4-yl)pyrazolo[1,5-a][1,3,5]triazin-4-amine]
[1]; Homo sapiens, CAL-120, 96 h
  IC50: 218 nM
CDK9/CycT1
  IC50: > 20000 nM

## Fc1ccc2[nH]c(CNc3nc(N4CCOCC4)nc4c(C5CCCC5)cnn34)nc2c1F [Example 262, 8-cyclopentyl-N-[(4,5-difluoro-1H-benzimidazol-2-yl)methyl]-2-(morpholin-4-yl)pyrazolo[1,5-a][1,3,5]triazin-4-amine]
[1]; Homo sapiens, CAL-120, 96 h
  IC50: 60.9 nM
CDK9/CycT1
  IC50: > 20000 nM

## Brc1cnn2c(NCc3nc4cccnc4[nH]3)nc(N3CCNCC3)nc12.O=CO [Example 19, 8-bromo-N-[(3H-imidazo[4,5-b]pyridin-2-yl)methyl]-2-(piperazin-1-yl)pyrazolo[1,5-a][1,3,5]triazin-4-amine formic acid salt]
CDK9/CycT1
  IC50: > 20000 nM

## CC1(O)CCN(c2nc(NCc3nc4ccccc4[nH]3)n3ncc(Br)c3n2)C1 (single isomer, unassigned) [Example 282, (3R or S)-1-(4-{[(1H-benzimidazol-2-yl)methyl]amino}-8-bromopyrazolo[1,5-a][1,3,5]triazin-2-yl)-3-methylpyrrolidin-3-ol]
[1]; Homo sapiens, CAL-120, 96 h
  IC50: 45.2 nM
CDK9/CycT1
  IC50: > 20000 nM

## CC(C)CNc1nc(NCc2nc3ccccc3[nH]2)n2ncc(Br)c2n1 [Example 285, N^4-[(1H-benzimidazol-2-yl)methyl]-8-bromo-N^2-(2-methylpropyl)pyrazolo[1,5-a][1,3,5]triazine-2,4-diamine]
[1]; Homo sapiens, CAL-120, 96 h
  IC50: 80.3 nM
CDK9/CycT1
  IC50: > 20000 nM

## NC1(C(F)(F)F)CCN(c2nc(NCc3nc4ccccc4[nH]3)n3ncc(Br)c3n2)C1 (stereo not shown) [Example 266, 2-[3-amino-3-(trifluoromethyl)pyrrolidin-1-yl]-N-(1H-benzimidazol-2-ylmethyl)-8-bromo-pyrazolo[1,5-a][1,3,5]triazin-4-amine]
[1]; Homo sapiens, CAL-120, 96 h
  IC50: 102 nM
CDK9/CycT1
  IC50: > 20000 nM

## Brc1cnn2c(NCc3nc4ccccc4[nH]3)nc(N3C[C@@H]4CN[C@@H]4C3)nc12.O=C(O)C(F)(F)F [Example 267, trifluoroacetic acid-N-[(1H-benzimidazol-2-yl)methyl]-8-bromo-2-[(1S,5S)-3,6-diazabicyclo[3.2.0]heptan-3-yl]pyrazolo[1,5-a][1,3,5]triazin-4-amine (1/1)]
[1]; Homo sapiens, CAL-120, 96 h
  IC50: 69.4 nM
CDK9/CycT1
  IC50: > 20000 nM

## Fc1ccc2[nH]c(CNc3nc(N4CCOCC4)nc4c(C5CCOCC5)cnn34)nc2c1F [Example 276, N-[(4,5-difluoro-1H-benzimidazol-2-yl)methyl]-2-(morpholin-4-yl)-8-(oxan-4-yl)pyrazolo[1,5-a][1,3,5]triazin-4-amine]
[1]; Homo sapiens, CAL-120, 96 h
  IC50: 165 nM
CDK9/CycT1
  IC50: > 20000 nM

## Brc1cnn2c(NCc3nc4ccncc4[nH]3)nc(N3CCOCC3)nc12 [Example 22, 8-bromo-N-[(3H-imidazo[4,5-c]pyridin-2-yl)methyl]-2-(morpholin-4-yl)pyrazolo[1,5-a][1,3,5]triazin-4-amine]
CDK9/CycT1
  IC50: > 18400 nM
[2]
  IC50: 131 nM

## CC1CN(C)CCN1c1nc(NCc2nc3ccccc3[nH]2)n2ncc(Br)c2n1 (single isomer, unassigned; enantiomer 2) [Example 261, N-(1H-benzimidazol-2-ylmethyl)-8-bromo-2-[(2R or S)-2,4-dimethylpiperazin-1-yl]pyrazolo[1,5-a][1,3,5]triazin-4-amine (Enantiomer 2)]
[1]
  IC50: 38.9 nM
CDK9/CycT1
  IC50: > 20000 nM

## CN1CCN(c2nc(NCc3nc4ccccc4[nH]3)n3ncc(Br)c3n2)C(CO)C1 (single isomer, unassigned) [Example 280, [(2R or S)-1-(4-{[(1H-benzimidazol-2-yl)methyl]amino}-8-bromopyrazolo[1,5-a][1,3,5]triazin-2-yl)-4-methylpiperazin-2-yl]methanol]
[1]; Homo sapiens, CAL-120, 96 h
  IC50: 64.1 nM
CDK9/CycT1
  IC50: > 20000 nM

## OCC1CN(c2nc(NCc3nc4ccccc4[nH]3)n3ncc(Br)c3n2)C1 [Example 304, [1-(4-{[(1H-benzimidazol-2-yl)methyl]amino}-8-bromopyrazolo[1,5-a][1,3,5]triazin-2-yl)azetidin-3-yl]methanol]
[1]; Homo sapiens, CAL-120, 96 h
  IC50: 86.7 nM
CDK9/CycT1
  IC50: > 20000 nM

## Brc1cnn2c(NCc3ncc(-c4ccccc4)[nH]3)nc(N3CCOCC3)nc12 [Example 23, 8-bromo-2-(morpholin-4-yl)-N-[(5-phenyl-1H-imidazol-2-yl)methyl]pyrazolo[1,5-a][1,3,5]triazin-4-amine]
CDK9/CycT1
  IC50: 3240 nM
[2]
  IC50: 3.83 nM

## C[C@@]1(O)CCN(c2nc(NCc3nc4ccccc4[nH]3)n3ncc(Br)c3n2)C1 (single isomer, unassigned) [Example 281, (3R or S)-1-(4-{[(1H-benzimidazol-2-yl)methyl]amino}-8-bromopyrazolo[1,5-a][1,3,5]triazin-2-yl)-3-methylpyrrolidin-3-ol]
[1]; Homo sapiens, CAL-120, 96 h
  IC50: 85.4 nM
CDK9/CycT1
  IC50: > 20000 nM

## Brc1cnn2c(NCc3nc4ccccc4[nH]3)nc(N3C[C@H]4CN[C@H]4C3)nc12.O=C(O)C(F)(F)F [Example 255, trifluoroacetic acid-N-[(1H-benzimidazol-2-yl)methyl]-8-bromo-2-[(1R,5R)-3,6-diazabicyclo[3.2.0]heptan-3-yl]pyrazolo[1,5-a][1,3,5]triazin-4-amine (1/1)]
[1]; Homo sapiens, CAL-120, 96 h
  IC50: 32.8 nM
CDK9/CycT1
  IC50: > 20000 nM

## FC(F)(F)Cc1cnn2c(NCc3nc4ccccc4[nH]3)nc(N3CCOCC3)nc12.O=CO [Example 265, formic acid-N-[(1H-benzimidazol-2-yl)methyl]-2-(morpholin-4-yl)-8-(2,2,2-trifluoroethyl)pyrazolo[1,5-a][1,3,5]triazin-4-amine (1/1)]
[1]; Homo sapiens, CAL-120, 96 h
  IC50: 35.4 nM
CDK9/CycT1
  IC50: > 20000 nM

Source: patent US20230117034A1, “PYRAZOLOTRIAZINES” (Bayer Aktiengesellschaft, priority 2019, published 2023)
